Results from patent publication US9751837B2, “Kinase inhibitors” (RESPIVERT LIMITED, priority 2014, dated 2017).
Values after ≈ are worked out from the molar mass of the structure shown. Structures can show the parent of a compound that is named as a salt.

Assay: Solubility in fasted-state simulated colonic fluid (FaSSCoF) at pH 6.5
Type: physicochemical
Settings: 25 °C, pH 6.5, fassgf or other biorelevant, thermodynamic from solid
Method: The solubilities of compounds of the invention in FaSSCoF at pH 6.5 are determined using a modification of a previously-reported procedure (Vertzoni, M., et al. Pharm. Res. 2010, 27, 2187-2196). In place of the bile salt extract employed in the original procedure (which extract is no longer available), the modified procedure uses a mixture of sodium taurochlorate (0.15 g), glycocholic acid (0.15 g), ursodeoxycholic acid (0.05 g), cholic acid (0.05 g), and glycodeoxycholic acid (0.05 g). These five bile acids are ground together with a mortar and pestle to produce a fine white powder that is incorporated into the FaSSCoF, as outlined below.
Tris(hydroxymethyl)aminomethane (Tris; 0.275 g) and maleic acid (0.44 g) are dissolved in water (35 mL) to give a solution whose pH is adjusted to 6.5 by treatment with 0.5M NaOH (ca. 12 mL). The solution is then made up to 50 mL with water. A portion of this Tris/maleate buffer solution (ca. 25 mL) is added to a 0.5 L round-bottomed flask, before being treated with 0.00565 g of the bile acid mixture described above. Solutions of phosphatidylcholine (0.0111 g) in DCM (0.15 mL) and palmitic acid (0.0013 g) in DCM (0.15 mL) are added, then the organic solvent is evaporated off under reduced pressure at 40° C. until a clear solution, with no perceptible DCM odour, is achieved. The volume of the evaporated solution is adjusted to 50 mL by addition of the remainder of Tris/maleate buffer, then BSA (0.115 g) is added, before being dissolved by gentle agitation.
Test compounds are suspended in the pH 6.5 FaSSCoF medium to give a maximum final concentration of 2-10 mg/mL. The suspensions are equilibrated at 25° C. for 24 h, before being filtered through a glass fibre C filter. The filtrates are then diluted as appropriate for injection and quantification by HPLC with reference to a standard. Different volumes of the standard, diluted and undiluted sample solutions are injected and the solubilities are calculated using the peak areas determined by integration of the peak found at the same retention time as the principal peak in the standard injection.

[1] = pH 6.5 FaSSCoF Solubility (mg/mL) Run 1
[2] = pH 6.5 FaSSCoF Solubility (mg/mL) Run 2

SMILES	solubility thermodynamic at 24 h [1]	solubility thermodynamic at 24 h [2]
COc1cc(Nc2cc(Oc3ccc(NC(=O)Nc4cc(C(C)(C)C)cc(NS(C)(=O)=O)c4OC)c4ccccc34)ccn2)ccc1C(=O)NC[C@H](O)[C@@H](O)[C@H](O)[C@H](O)CO [17(bw), 4-((4-((4-(3-(5-(tert-Butyl)-2-methoxy-3-(methylsulfonamido)phenyl)ureido)naphthalen-1-yl)oxy)pyridin-2-yl)amino)-2-methoxy-N-((2S,3R,4R,5R)-2,3,4,5,6-pentahydroxyhexyl)benzamide]	2 µg/mL (≈ 2.32 µM)	3 µg/mL (≈ 3.48 µM)
COc1c(NC(=O)Nc2ccc(Oc3ccnc(Nc4ccc(P(C)(=O)O)c(N(C)C)c4)c3)c3ccccc23)cc(C(C)(C)C)cc1NS(C)(=O)=O [68 (sodium salt)]	20 µg/mL	20 µg/mL
COc1cc(Nc2cc(Oc3ccc(NC(=O)Nc4cc(C(C)(C)C)cc(NS(C)(=O)=O)c4OC)c4ccccc34)ccn2)cc(OC)c1C(=O)NCCOCCOCCOP(=O)(O)O [47 (sodium salt), 2-(2-(2-(4-((4-((4-(3-(5-(tert-butyl)-2-methoxy-3-(methylsulfonamido)phenyl)ureido)-naphthalen-1-yl)oxy)pyridin-2-yl)amino)-2,6-dimethoxybenzamido)ethoxy)ethoxy)ethyl dihydrogen phosphate]	> 1900 µg/mL	> 2000 µg/mL
COc1cc(Nc2cc(Oc3ccc(NC(=O)Nc4cc(C(C)(C)C)cc(NS(C)(=O)=O)c4OC)c4ccccc34)ccn2)cc(OC)c1C(=O)NCCCN1CCOCC1 [Example 23, 4-((4-((4-(3-(5-(tert-Butyl)-2-methoxy-3-(methylsulfonamido)phenyl)ureido)naphthalen-1-yl)oxy)pyridin-2-yl)amino)-2,6-dimethoxy-N-(3-morpholinopropyl)benzamide]	8 µg/mL (≈ 9.35 µM)	8 µg/mL (≈ 9.35 µM)
COc1cc(Nc2cc(Oc3ccc(NC(=O)Nc4cc(C(C)(C)C)cc(NS(C)(=O)=O)c4OC)c4ccccc34)ccn2)cc(OC)c1C(=O)NCC(CO)(CO)CO [17(cn), 4-((4-((4-(3-(5-(tert-Butyl)-2-methoxy-3-(methylsulfonamido)phenyl)ureido)naphthalen-1-yl)oxy)pyridin-2-yl)amino)-N-(3-hydroxy-2,2-bis(hydroxymethyl)propyl)-2,6-dimethoxybenzamide]	25 µg/mL (≈ 29.5 µM)	17 µg/mL (≈ 20.1 µM)
COc1cc(Nc2cc(Oc3ccc(NC(=O)Nc4cc(C(C)(C)C)cc(NS(C)(=O)=O)c4OC)c4ccccc34)ccn2)cc(OC)c1C(=O)NCCC1CCN(C)CC1 [17(at), 4-((4-((4-(3-(5-(tert-Butyl)-2-methoxy-3-(methylsulfonamido)phenyl)ureido)naphthalen-1-yl)oxy)pyridin-2-yl)amino)-2,6-dimethoxy-N-(2-(1-methylpiperidin-4-yl)ethyl)benzamide]	9 µg/mL (≈ 10.5 µM)	9 µg/mL (≈ 10.5 µM)
COc1cc(Nc2cc(Oc3ccc(NC(=O)Nc4cc(C(C)(C)C)cc(NS(C)(=O)=O)c4OC)c4ccccc34)ccn2)cc(OC)c1C(=O)N1CCN(CCN(C)C)CC1 [17(cg), N-(5-(tert-Butyl)-3-(3-(4-((2-((4-(4-(2-(dimethylamino)ethyl)piperazine-1-carbonyl)-3,5-dimethoxyphenyl)amino)pyridin-4-yl)oxy)naphthalen-1-yl)ureido)-2-methoxyphenyl)methane sulfonamide]	2 µg/mL (≈ 2.3 µM)	–
CCC(=O)NS(=O)(=O)c1ccc(Nc2nccc(Oc3ccc(NC(=O)Nc4cc(C(C)(C)C)cc(NS(C)(=O)=O)c4OC)c4ccccc34)n2)cc1OC [17(bk) (sodium salt), N-((4-((4-((4-(3-(5-(tert-Butyl)-2-methoxy-3-(methylsulfonamido)phenyl)ureido)-naphthalen-1-yl)oxy)pyrimidin-2-yl)amino)-2-methoxyphenyl)sulfonyl)propionamide]	42 µg/mL	37 µg/mL

Second part, the compound after the results:

solubility thermodynamic at 24 h [1]	solubility thermodynamic at 24 h [2]	SMILES
1310 µg/mL	–	COc1cc(Nc2cc(Oc3ccc(NC(=O)Nc4cc(C(C)(C)C)cc(NS(C)(=O)=O)c4OC)c4ccccc34)ccn2)ccc1C(=O)N[C@@H](CO)C(=O)O [17(bj) (sodium salt), (S)-2-(4-((4-((4-(3-(5-(tert-Butyl)-2-methoxy-3-(methylsulfonamido)phenyl)ureido)-naphthalen-1-yl)oxy)pyridin-2-yl)amino)-2-methoxybenzamido)-3-hydroxypropanoic acid]
10 µg/mL (≈ 14 µM)	12 µg/mL (≈ 16.8 µM)	COc1c(NC(=O)Nc2ccc(Oc3ccnc(Nc4ccc(C(=O)O)c(N(C)C)c4)c3)c3ccccc23)cc(C(C)(C)C)cc1NS(C)(=O)=O [17(am), 4-[[4-[[4-[[5-tert-butyl-3-(methanesulfonamido)-2-methoxy-phenyl]carbamoylamino]-1-naphthyl]oxy]-2-pyridyl]amino]-2-(dimethylamino)benzoic acid]
1 µg/mL	1 µg/mL	COc1cc(Nc2cc(Oc3ccc(NC(=O)Nc4cc(C(C)(C)C)cc(NS(C)(=O)=O)c4OC)c4ccccc34)ccn2)ccc1C(=O)NCCCCCCC(=O)O [34 (hydrochloride salt), 7-(4-((4-((4-(3-(5-(tert-Butyl)-2-methoxy-3-(methylsulfonamido)phenyl)ureido)naphthalen-1-yl)oxy)pyridin-2-yl)amino)-2-methoxybenzamido)heptanoic acid, hydrochloride salt]
5 µg/mL (≈ 5.87 µM)	5 µg/mL (≈ 5.87 µM)	COc1cc(Nc2cc(Oc3ccc(NC(=O)Nc4cc(C(C)(C)C)cc(NS(C)(=O)=O)c4OC)c4ccccc34)ccn2)ccc1S(=O)(=O)CCOCCOCCO [Example 40, N-(5-(tert-Butyl)-3-(3-(4-((2-((4-((2-(2-(2-hydroxyethoxy)ethoxy)ethyl)sulfonyl)-3-methoxyphenyl)amino)pyridin-4-yl)oxy)naphthalen-1-yl)ureido)-2-methoxyphenyl)-methanesulfonamide]
946 µg/mL	881 µg/mL	COc1cc(Nc2cc(Oc3ccc(NC(=O)Nc4cc(C(C)(C)C)cc(NS(C)(=O)=O)c4OC)c4ccccc34)ccn2)ccc1C(=O)NCCOCCOCCOP(=O)(O)O [19 (ammonium salt), 2-(2-(2-(4-((4-((4-(3-(5-(tert-Butyl)-2-methoxy-3-(methylsulfonamido)phenyl)ureido)-naphthalen-1-yl)oxy)pyridin-2-yl)amino)-2-methoxybenzamido)ethoxy)ethoxy)ethyl dihydrogen phosphate]
7 µg/mL (≈ 8.4 µM)	9 µg/mL (≈ 10.8 µM)	COc1cc(Nc2cc(Oc3ccc(NC(=O)Nc4cc(C(C)(C)C)cc(NS(C)(=O)=O)c4OC)c4ccccc34)ccn2)ccc1C(=O)NC[C@H](O)[C@H](O)[C@H](O)CO [Example 42, 4-((4-((4-(3-(5-(tert-Butyl)-2-methoxy-3-(methylsulfonamido)phenyl)ureido)naphthalen-1-yl)oxy)pyridin-2-yl)amino)-2-methoxy-N-((2S,3S,4R)-2,3,4,5-tetrahydroxypentyl)benzamide]
4 µg/mL (≈ 4.72 µM)	–	COc1cc(Nc2cc(Oc3ccc(NC(=O)Nc4cc(C(C)(C)C)cc(NS(C)(=O)=O)c4OC)c4ccccc34)ccn2)ccc1S(=O)(=O)CCCN1CCOCC1 [Example 20, N-(5-(tert-Butyl)-2-methoxy-3-(3-(4-((2-((3-methoxy-4-((3-morpholinopropyl)sulfonyl)phenyl)-amino)pyridin-4-yl)oxy)naphthalen-1-yl)ureido)phenyl)methanesulfonamide]
> 3500 µg/mL	> 4200 µg/mL	COc1cc(Nc2cc(Oc3ccc(NC(=O)Nc4cc(C(C)(C)C)cc(NS(C)(=O)=O)c4OC)c4ccccc34)ccn2)ccc1C(=O)NCCOP(=O)(O)O [35 (sodium salt), 2-(4-((4-((4-(3-(5-(tert-Butyl)-2-methoxy-3-(methylsulfonamido)phenyl)ureido)naphthalen-1-yl)oxy)pyridin-2-yl)amino)-2-methoxybenzamido)ethyl dihydrogen phosphate]
> 2800 µg/mL	> 2800 µg/mL	COc1cc(Nc2cc(Oc3ccc(NC(=O)Nc4cc(C(C)(C)C)cc(NS(C)(=O)=O)c4OC)c4ccccc34)ccn2)ccc1CP(C)(=O)O [70 (sodium salt)]
